Laboratory results: patent US6552196B2, “Quinolone carboxylic acid derivatives” (Dong Wha Pharmaceutical Industrial Co., Ltd., priority 1997, dated 2003)
≈ marks a conversion by molar mass, not a printed value.

Key:
Test in all cases: In vitro antibacterial activity (MIC), agar dilution
Assay type in all cases: cell-based
[1] = test system: Streptococcus pyogens 77A; conditions: 2-fold agar dilution, Muller-Hinton agar, 18 hours at 37° C., read-out: minimum inhibitory concentration (MIC)
Experimental: (§1) 10^7 cfu/ml of bacteria were inoculated and cultured for 18 hours at 37° C. and then the antibacterial activities were measured. For the methicillin resistant strains the activities were measured after 48 hours of cultivation at 30° C. Hoechst Standard strains were used for the testings.

[2] = test system: Klebsiella aerogenes 1522E; conditions: 2-fold agar dilution, Muller-Hinton agar, 18 hours at 37° C., read-out: minimum inhibitory concentration (MIC)
Experimental: as §1

Klebsiella oxytoca 1082E = conditions: 2-fold agar dilution, Muller-Hinton agar, 18 hours at 37° C., read-out: minimum inhibitory concentration (MIC)
Experimental: as §1

[3] = test system: Pseudomonas aeruginosa 1771; conditions: 2-fold agar dilution, Muller-Hinton agar, 18 hours at 37° C., read-out: minimum inhibitory concentration (MIC)
Experimental: as §1

[4] = test system: Staphylococcus aureus 503; conditions: 2-fold agar dilution, Muller-Hinton agar, 18 hours at 37° C., read-out: minimum inhibitory concentration (MIC)
Experimental: as §1

[5] = test system: Staphylococcus aureus 285; conditions: 2-fold agar dilution, Muller-Hinton agar, 18 hours at 37° C., read-out: minimum inhibitory concentration (MIC)
Experimental: as §1

[6] = test system: Pseudomonas aeruginosa 1592E; conditions: 2-fold agar dilution, Muller-Hinton agar, 18 hours at 37° C., read-out: minimum inhibitory concentration (MIC)
Experimental: as §1

[7] = test system: Enterobacter clocae 1321E; conditions: 2-fold agar dilution, Muller-Hinton agar, 18 hours at 37° C., read-out: minimum inhibitory concentration (MIC)
Experimental: as §1

Esherichia coli DC2 = conditions: 2-fold agar dilution, Muller-Hinton agar, 18 hours at 37° C., read-out: minimum inhibitory concentration (MIC)
Experimental: as §1

[8] = test system: Streptococcus pyogens 308A; conditions: 2-fold agar dilution, Muller-Hinton agar, 18 hours at 37° C., read-out: minimum inhibitory concentration (MIC)
Experimental: as §1

Esherichia coli DC0 = conditions: 2-fold agar dilution, Muller-Hinton agar, 18 hours at 37° C., read-out: minimum inhibitory concentration (MIC)
Experimental: as §1

Salmonella typhimurium = conditions: Salmonella enterica, 2-fold agar dilution, Muller-Hinton agar, 18 hours at 37° C., read-out: minimum inhibitory concentration (MIC)
Experimental: as §1

[9] = test system: Streptococcus faecium MD 8b; conditions: Enterococcus faecium, MD8B, 2-fold agar dilution, Muller-Hinton agar, 18 hours at 37° C., read-out: minimum inhibitory concentration (MIC)
Experimental: as §1

Esherichia coli TEM = conditions: 2-fold agar dilution, Muller-Hinton agar, 18 hours at 37° C., read-out: minimum inhibitory concentration (MIC)
Experimental: as §1

[10] = test system: Pseudomonas aeruginosa 9027; conditions: 2-fold agar dilution, Muller-Hinton agar, 18 hours at 37° C., read-out: minimum inhibitory concentration (MIC)
Experimental: as §1

Esherichia coli 1507E = conditions: 2-fold agar dilution, Muller-Hinton agar, 18 hours at 37° C., read-out: minimum inhibitory concentration (MIC)
Experimental: as §1

Esherichia coli 078 = conditions: 2-fold agar dilution, Muller-Hinton agar, 18 hours at 37° C., read-out: minimum inhibitory concentration (MIC)
Experimental: as §1

[11] = test system: Staphylococcus aureus SG511; conditions: 2-fold agar dilution, Muller-Hinton agar, 18 hours at 37° C., read-out: minimum inhibitory concentration (MIC)
Experimental: as §1

Enterobacter clocae P99 = conditions: 2-fold agar dilution, Muller-Hinton agar, 18 hours at 37° C., read-out: minimum inhibitory concentration (MIC)
Experimental: as §1

[12] = test system: Pseudomonas aeruginosa 1771M; conditions: Pseudomonas aeruginosa, 1771M, 18 h, read-out: minimum inhibitory concentration (MIC)
Experimental: as §1

Structure (SMILES)	MIC [1]	MIC [2]	MIC (Klebsiella oxytoca 1082E)	MIC [3]	MIC [4]	MIC [5]	MIC [6]	MIC [7]	MIC (Esherichia coli DC2)	MIC [8]	MIC (Esherichia coli DC0)	MIC (Salmonella typhimurium)	MIC [9]	MIC (Esherichia coli TEM)	MIC [10]	MIC (Esherichia coli 1507E)	MIC (Esherichia coli 078)	MIC [11]	MIC (Enterobacter clocae P99)	MIC [12]
CON=C1CN(c2cc3c(cc2F)c(=O)c(C(=O)O)cn3C2CC2)CC12CNC2.CS(=O)(=O)O [Example 2, 1-Cyclopropyl-6-fluoro-7-[8-(methoxyimino)-2,6-diazaspiro[3,4]oct-6-yl]-4-oxo-1,4-dihydro-3-quinolinecarboxylic acid methane sulfonate]	0.007 mg/L	0.098 mg/L	0.007 mg/L	0.391 mg/L	0.049 mg/L	0.049 mg/L	0.391 mg/L	0.025 mg/L	0.013 mg/L	0.195 mg/L	0.198 mg/L	0.025 mg/L	0.098 mg/L	0.049 mg/L	0.781 mg/L	0.049 mg/L	0.025 mg/L	0.013 mg/L	0.049 mg/L	0.391 mg/L
CON=C1CN(c2c(F)cc3c(=O)c(C(=O)O)cn(C4CC4)c3c2F)CC12CNC2 [Example 3, 1-Cyclopropyl-6,8-difluoro-7-[8-(methoxyimino)-2,6-diazaspiro[3,4]oct-6-yl]-4-oxo-1,4-dihydro-3-quinolinecarboxylic acid]	0.025 mg/L (≈ 0.0598 µM)	0.098 mg/L (≈ 0.234 µM)	0.007 mg/L (≈ 0.0167 µM)	1.56 mg/L (≈ 3.74 µM)	0.098 mg/L (≈ 0.234 µM)	0.049 mg/L (≈ 0.117 µM)	0.781 mg/L (≈ 1.87 µM)	0.025 mg/L (≈ 0.0598 µM)	0.025 mg/L (≈ 0.0598 µM)	0.391 mg/L (≈ 0.935 µM)	0.391 mg/L (≈ 0.935 µM)	0.025 mg/L (≈ 0.0598 µM)	0.098 mg/L (≈ 0.234 µM)	0.049 mg/L (≈ 0.117 µM)	1.56 mg/L (≈ 3.74 µM)	0.049 mg/L (≈ 0.117 µM)	0.098 mg/L (≈ 0.234 µM)	0.025 mg/L (≈ 0.0598 µM)	0.049 mg/L (≈ 0.117 µM)	0.781 mg/L (≈ 1.87 µM)
